Patent publication US6355799B1, “Substituted benzene compounds, process for their preparation, and herbicidal and defoliant compositions containing them” (ISK Americas Incorporated, priority 1997, dated 2002)

Columns and labels:
Format in all cases: in vivo
[1] = tested on: redroot pigweed (Amaranthus retroflexus, AMARE); assay: Pre-emerge test, greenhouse herbicide activity screening; settings: phytotoxicity rating 0-100, 14 days after application
Procedure, shortened: (§1)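 Plants grown in 10 cm pots of sandy loam mix received acetone-dissolved compounds through a moving flat-fan nozzle. Doses ranged from 15 to 1000 g ai/ha. Pre-emerge pots were seeded one day earlier, post-emerge pots 8–21 days earlier. Fourteen days on, each pot was graded 0–100 for damage.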

[2] = tested on: barnyardgrass (Echinochloa crus-galli, ECHCG); assay: as above; settings: phytotoxicity rating 0-100, 14 days after application
Procedure, shortened: (§2)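 Compounds in acetone were track-sprayed at 187 l/ha, 15–1000 g ai/ha, onto sandy loam pots. Pre-emerge seeds were sown one day before spraying, with surface watering afterwards. Post-emerge plants were at the 2–3 leaf stage and sprayed with 0.25% v/v non-ionic surfactant. Injury was rated 0–100 at 14 days.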

[3] = tested on: green foxtail (Setaria viridis, SETVI); assay: as above; settings: phytotoxicity rating 0-100, 14 days after application
Procedure, shortened: as §2

[4] = tested on: ivyleaf morningglory (Ipomoea hederacea, IPOHE); assay: as above; settings: phytotoxicity rating 0-100, 14 days after application
Procedure, shortened: as §2

[5] = tested on: johnsongrass (Sorghum halepense, SORHA); assay: as above; settings: phytotoxicity rating 0-100, 14 days after application
Procedure, shortened: as §2

[6] = tested on: lambsquarters (Chenopodium album, CHEAL); assay: as above; settings: phytotoxicity rating 0-100, 14 days after application
Procedure, shortened: as §2

[7] = tested on: large crabgrass (Digitaria sanguinalis, DIGSA); assay: as above; settings: phytotoxicity rating 0-100, 14 days after application
Procedure, shortened: as §2

[8] = tested on: sicklepod (Cassia obtusifolia, CASOB); assay: as above; settings: phytotoxicity rating 0-100, 14 days after application
Procedure, shortened: as §2

[9] = tested on: velvetleaf (Abutilon theophrasti, ABUTH); assay: as above; settings: phytotoxicity rating 0-100, 14 days after application
Procedure, shortened: as §2

[10] = tested on: field corn (Zea mays L., var. Dekalb 535, CORN); assay: Pre-emerge test, crop safety; settings: crop damage rating 0-100, 14 days after application
Procedure, shortened: (§3)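 Visual ratings on a 0-100 scale (0 no damage, 100 all plants dead) were taken at 14 days after treatment. Rates of 15-1000 g ai/ha in acetone, 187 l/ha, were sprayed onto soil one day after planting (pre-emerge) or onto 2-3 leaf plants with 0.25% v/v surfactant (post-emerge).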

[11] = tested on: upland rice (Oryza sp., var. Tebonnet, RICE); assay: Pre-emerge test, crop safety; settings: crop damage rating 0-100, 14 days after application
Procedure, shortened: as §3

[12] = tested on: barnyardgrass (Echinochloa crus-galli, ECHCG); assay: Post-emerge test, greenhouse herbicide activity screening; settings: post-emerge, 14 days after application, rating scale 0-100
Procedure, shortened: as §1

[13] = tested on: green foxtail (Setaria viridis, SETVI); assay: as above; settings: post-emerge, 14 days after application, rating scale 0-100
Procedure, shortened: as §1

[14] = tested on: ivyleaf morningglory (Ipomoea hederacea, IPOHE); assay: as above; settings: post-emerge, 14 days after application, rating scale 0-100
Procedure, shortened: as §1

[15] = tested on: johnsongrass (Sorghum halepense, SORHA); assay: as above; settings: post-emerge, 14 days after application, rating scale 0-100
Procedure, shortened: as §1

[16] = tested on: lambsquarters (Chenopodium album, CHEAL); assay: as above; settings: post-emerge, 14 days after application, rating scale 0-100
Procedure, shortened: as §1

[17] = tested on: large crabgrass (Digitaria sanguinalis, DIGSA); assay: as above; settings: post-emerge, 14 days after application, rating scale 0-100
Procedure, shortened: as §1

[18] = tested on: redroot pigweed (Amaranthus retroflexus, AMARE); assay: as above; settings: post-emerge, 14 days after application
Procedure, shortened: as §1

[19] = tested on: sicklepod (Cassia obtusifolia, CASOB); assay: as above; settings: post-emerge, 14 days after application, rating scale 0-100
Procedure, shortened: as §1

[20] = tested on: velvetleaf (Abutilon theophrasti, ABUTH); assay: as above; settings: post-emerge, 14 days after application, rating scale 0-100
Procedure, shortened: as §1

[21] = tested on: field corn (Zea mays L., var. Dekalb 535, CORN); assay: Post-emerge test, crop safety; settings: post-emerge, 14 days after application, rating scale 0-100
Procedure, shortened: as §2

[22] = tested on: upland rice (Oryza sp., var. Tebonnet, RICE); assay: Post-emerge test, crop safety; settings: post-emerge, 14 days after application, rating scale 0-100
Procedure, shortened: as §2

Cc1ccc(OC(=O)Nc2c(C)c(Cl)cc(F)c2-n2c(=O)cc(C(F)(F)F)n(C)c2=O)cc1C [4-53]
Pre-emerge Herbicidal Activity AMARE ([1]; 63 g ai/ha): 100
Pre-emerge Herbicidal Activity AMARE ([1]; 250 g ai/ha): 100
Pre-emerge Herbicidal Activity ECHCG ([2]; 63 g ai/ha): 10
Pre-emerge Herbicidal Activity ECHCG ([2]; 250 g ai/ha): 85
Pre-emerge Herbicidal Activity SETVI ([3]; 63 g ai/ha): 80
Pre-emerge Herbicidal Activity SETVI ([3]; 250 g ai/ha): 100
Pre-emerge Herbicidal Activity IPOHE ([4]; 63 g ai/ha): 30
Pre-emerge Herbicidal Activity IPOHE ([4]; 250 g ai/ha): 80
Pre-emerge Herbicidal Activity SORHA ([5]; 63 g ai/ha): 30
Pre-emerge Herbicidal Activity SORHA ([5]; 250 g ai/ha): 85
Pre-emerge Herbicidal Activity CHEAL ([6]; 63 g ai/ha): 100
Pre-emerge Herbicidal Activity CHEAL ([6]; 250 g ai/ha): 100
Pre-emerge Herbicidal Activity DIGSA ([7]; 63 g ai/ha): 40
Pre-emerge Herbicidal Activity DIGSA ([7]; 250 g ai/ha): 100
Pre-emerge Herbicidal Activity CASOB ([8]; 63 g ai/ha): 20
Pre-emerge Herbicidal Activity CASOB ([8]; 250 g ai/ha): 60
Pre-emerge Herbicidal Activity ABUTH ([9]; 63 g ai/ha): 100
Pre-emerge Herbicidal Activity ABUTH ([9]; 250 g ai/ha): 100
Pre-emerge Herbicidal Activity CORN ([10]; 63 g ai/ha): 0
Pre-emerge Herbicidal Activity CORN ([10]; 250 g ai/ha): 25
Pre-emerge Herbicidal Activity RICE ([11]; 63 g ai/ha): 10
Pre-emerge Herbicidal Activity RICE ([11]; 250 g ai/ha): 50
phytotoxicity rating ECHCG ([12]; 63 g ai/ha): 0
phytotoxicity rating ECHCG ([12]; 250 g ai/ha): 60
phytotoxicity rating SETVI ([13]; 63 g ai/ha): 10
phytotoxicity rating SETVI ([13]; 250 g ai/ha): 70
phytotoxicity rating IPOHE ([14]; 63 g ai/ha): 100
phytotoxicity rating IPOHE ([14]; 250 g ai/ha): 100
phytotoxicity rating SORHA ([15]; 63 g ai/ha): 0
phytotoxicity rating SORHA ([15]; 250 g ai/ha): 40
phytotoxicity rating CHEAL ([16]; 63 g ai/ha): 60
phytotoxicity rating CHEAL ([16]; 250 g ai/ha): 90
phytotoxicity rating DIGSA ([17]; 63 g ai/ha): 0
phytotoxicity rating DIGSA ([17]; 250 g ai/ha): 40
phytotoxicity rating AMARE ([18]; 63 g ai/ha, rating scale 0-100 (0 no damage, 100 complete death)): 70
phytotoxicity rating AMARE ([18]; 250 g ai/ha, rating scale 0-100): 100
phytotoxicity rating CASOB ([19]; 63 g ai/ha): 30
phytotoxicity rating CASOB ([19]; 250 g ai/ha): 90
phytotoxicity rating ABUTH ([20]; 63 g ai/ha): 100
phytotoxicity rating ABUTH ([20]; 250 g ai/ha): 100
phytotoxicity rating CORN (crop damage) ([21]; 63 g ai/ha): 5
phytotoxicity rating CORN (crop damage) ([21]; 250 g ai/ha): 70
phytotoxicity rating RICE (crop damage) ([22]; 63 g ai/ha): 30
phytotoxicity rating RICE (crop damage) ([22]; 250 g ai/ha): 65
